Assay results as given in US6355685B1, “Method of treating anxiety disorders” (Knoll Pharmaceutical Company, priority 1999, dated 2002).

Tested on: rat elevated plus-maze
Assay: rat elevated plus-maze (animal model of anxiety)
Type: in vivo
Conditions: 3 mg/kg po
Procedure: This model was carried out as described in J. Neurosci. Methods 1985; 14:149-167.

CC(C)CC(N(C)C)C1(c2ccc(Cl)cc2)CCC1.Cl.O (stereo not shown) [N-{1-[1-(4-chlorophenyl)cyclobutyl]-3-methylbutyl}-N,N-dimethylamine hydrochloride monohydrate]
open: total arm entry ratio: significant anxiolytic-like increase
